The values below are quoted from earlier work in patent publication US20170276692A1, “METHODS OF MONITORING FOR ADHERENCE TO BREXPIPRAZOLE (REXULTI®) THERAPY” (Ameritox, LLC, priority 2016, published 2017).

The conditions of series [1]: brexpiprazole is the predominant species.
The conditions of series [2]: for predominant route of excretion: in vivo.

As to `O=C(O)CCCOc1ccc2ccc(=O)[nH]c2c1` [OPC3952], in series [1], the “metabolite level in plasma” value is reported as 0-4%. Besides, in series [2], the “predominant route of excretion” value was “excreted predominantly in urine”.

On to `c1cc(N2CCNCC2)c2ccsc2c1` [SF034318], for which the “predominant route of excretion” value in series [2] is “excreted predominantly in urine”.

Take `O=c1ccc2ccc(OCCCCN3CCN(c4cccc5sccc45)CC3)cc2[nH]1` [Brexpiprazole]: the “fraction of an oral dose excreted as unchanged brexpiprazole in feces” value in series [2] (oral dose, feces) is 14%. The “fraction of an oral dose excreted as unchanged brexpiprazole in urine” value in series [2] (oral dose, urine) was “Less than 1%”. For the same compound, where the note is “after oral administration”, the oral bioavailability is listed as 95%. Also, where the note is “days of dosing”, the “time to steady state serum concentrations” value was 10 to 12 days. Further, for the setting “in vivo”, the mean elimination half-life was 91 h.
